Entries after “also recorded” stand apart in the source; their conditions may differ.
What was measured:
[1] = test system: WT mice; assay: Novel Object Recognition Test (NOR); assay type: in vivo, mouse; conditions: for memory formation and consolidation in NOR: 24, 48, 72 and 120 h (up to 5 days)
Protocol: a) After a 5 min habituation session in the empty arena on day 1, mice were injected with RB5 (20 mg/kg) or vehicle one hour before the training session with two identical objects on day 2 and were then evaluated for their long-term memory on subsequent days. Discrimination Index (D.I.) was tested at different time points 24, 48, 72, and 120 hrs (a) and also up to 168 h (b). […] On subsequent days, while the RB5 group remained high, the Scramble group returned to basal levels. *p<0.01**p<0.0001. […] At 24 h, D.I. of RB5 group was highly significant (Independent sample t-test t26=4.428 P<0.01, SCR (n=14) RB5 (=14)) as well as at 48 h (Independent sample t-test t38=4.210 P<0.0001, SCR (n=18) RB5 (=22)). […] P<0.001, P<0.01.
The test was performed in an open square box (45×45×45 cm), placed in a quiet room with dim light. The objects used were: parallelepipeds in metal and glass vials filled with water. They had no natural significance for mice and they had never been associated with reinforcement before. The protocol required three days and it was performed as follows:
First day: the mice were individually placed in the empty arena for 5 min in order to familiarize with it and to measure their anxiety (thigmotaxis trial). The percentage of thigmotaxis is calculated as the time spent in the peripheral zone out of the total time spent in the arena (300 sec.). Animals showing a thigmotaxis>90% are discarded from the sample because considered biased for anxiety.
Second day: Mice were injected with either […] CPP-SCR or CPP-RB5 1 h prior to training and then they were placed into the arena for 10 minutes, where they were allowed to explore two identical objects (training trial). Therefore, two different measures (in seconds) for Left Object and Right Object were obtained. […] Then, percentages of exploration for each object were calculated as: the time spent exploring LO or RO, out of the total time of exploration (RO+LO). According to these percentages, experimenter decided where to place the novel object for the test trial.
Third day: one of the two identical objects (Parallelepiped) was changed with a new object (Vial) and the mice were allowed to explore them for 10 minutes (test trial).
Times of exploration for the familiar object (FO) and for the novel object (NO) were separately recorded, with the same procedure as for the training trial. A cut-off of 6 seconds was also considered. In order to attest recognition memory, a discrimination index (D.I.) was calculated as (total time of exploration of NO−total time of exploration of FO)/total time of exploration of (FO+NO). D.I. index is comprised between −1 and +1. A D.I. of 1 would mean perfect memory retention for the […]. Conversely, the more time the animal spends exploring FO the lower will be the D.I. value, meaning poor memory retention for FO. SMART software (Panlab, Barcelona, Spain) was used to run the experiment.

[2] = test system: ERK1/2; assay: Ex vivo acute striatal slices, glutamate stimulation, Western blot for phospho ERK; assay type: cell-based, mouse; conditions: 50 μM peptide; for ERK2 activation (phosphorylation of ERK2) / pERK1 (phospho-ERK1) level: glutamate 100 μM 10 min, vs scramble
Protocol: a) RB5 peptide selectively promoted activation of ERK2. Acute striatal slices either pre-treated with Scramble (SCR) or RB5 peptide (50 μM) and then stimulated 10 minutes with glutamate (GLU) (100 μM) or vehicle were analysed in Western blot (left panel) and probed with anti phospho ERK antibodies (p44^ERK1 and p42^ERK2) and anti ERK1/2 antibody. GAPDH was used as loading control. […] No changes were detected in the total ERK1 and ERK2 levels. GAPDH was used as loading control. […] Mice injected with a single dose of CPP-SCR or CPP-RB5 peptides (20 mg/kg, i.p.) were rapidly perfused 1 h later and brains were dissected and further analysed for IHC and immunofluorescence. Representative photomicrographs of pERK1/2, pMSK, pAch3, pELK1 and c-Fos expression in the striatum. […] Two-way ANOVA Bonferroni post hoc comparison: one black star, p<0.05, two black stars, p<0.01, one white star, p<0.001. p) Dose response curve of RB5 peptide for ERK activation. 200 μm thick striatal slices were freshly prepared from 2-month old mice and transferred into a perfusion chamber for 1 h at 32° C. Slices were pre-treated with different doses of RB5 or scrambled control. After 1 h, slices for each dose was fixed in PFA 4% for 15 min. 18 μm cryo-sections were processed for immunohistochemistry with anti-phospho p44/p42 MAP kinase. Neuronal quantification was performed with ImageJ software by counting the number of phospho-ERK positive cells in each slice. The level of activation is expressed on the Y-axis as arbitrary units (AU). Doses are reported in a logarithmic scale (Log 10) on the X-axis. The EC50 was calculated using GraphPad Prism software.
Adult mice were anesthetized and decapitated. The brains were rapidly removed from the skull and put on a cool glass plate filled with ice-cold sucrose-based dissecting solution (87 mM NaCl, 2.5 mM KCl, 7 mM MgCl2, 1 mM NaH2PO4, 75 mM sucrose, 25 mM NaHCO3, 10 mM D-glucose, 0.5 mM CaCl2), 2 mM kynurenic acid) and oxygenated with 95% O2 and 5% CO2 and subsequently mounted on the vibratome stage (Vibratome, VT1000S-Leica Microsystems). 200 μm-thick slices were cut and transferred into the brain slice chamber (Brain slice chamber-BSC1—Scientific System design Inc., Mississauga, ON, Canada) and allowed to recover for 1 h at 32° C., with a constant perfusion of carboxygenated artificial cerebrospinal fluid (ACSF) in the presence of the Scramble or RB5 peptide (50 μM). Brain slice stimulation was performed with 100 μM glutamate in the chamber for 10 min. After rapid fixation in 4% PFA for 15 min at room temperature, slices were rinsed and the cryoprotected overnight at 4° C. in sucrose solution. On the following day slices were further cut in thinner slices of 18 μm using cryostat (Leica CM1850) and collected onto SuperFrost Plus slides (Thermo Scientific).
Mice were sacrificed by decapitation and brain slices were freshly prepared according to the above ex-vivo system protocol and incubated in a perfusing chamber with the peptides. After stimulation with glutamate or saline, slices were then homogenised and used for protein determination using a DC Protein Assay kit (Bio-rad). Equal amounts of protein (5 or 10 μg, depending on the target protein) for each sample were loaded onto 12% polyacrylamide gels. Proteins were separated onto SDS/PAGE and transferred to nitrocellulose membranes. After incubation for 1 hr in blocking solution (TBS1λ, 0.1% Tween), membranes were incubated overnight with anti ERK2 (K-23):sc-153 (1:1000 Santa Cruz Biotechnology, Dallas, Tex.), phospho-p42-44 Map Kinase (Thr202/[…]) (1:1000 Cell Signalling Technology, Danvers, Mass.) and anti-GAPDH (FL-335): sc-25778 (1:1000 Santa Cruz Biotechnology, Dallas, Tex.). The immunoblots were analysed with ImageJ software to measure the optical density of the bands. The levels of each protein were normalized on the GAPDH loading control.

Compound	memory formation and consolidation in NOR [1]	Discrimination Index (D.I.) ([1]; 24 h, 20 mg/kg 1 h before training)	Discrimination Index (D.I.) ([1]; 48 h, vs chance level)	Discrimination Index (D.I.) ([1]; 72 h)	Discrimination Index (D.I.) ([1]; 120 h)	Discrimination Index (D.I.) / performance ([1]; 168 h)	total ERK1 and ERK2 levels [2]	ERK2 activation (phosphorylation of ERK2) [2]	pERK1 (phospho-ERK1) level [2]
CSCC[C@H](NC(=O)[C@H](CCC(=O)O)NC(=O)[C@@H](NC(=O)[C@H](CCC(=O)O)NC(=O)CNC(=O)[C@@H]1CCCN1C(=O)[C@@H](NC(=O)CNC(=O)[C@@H]1CCCN1C(=O)CNC(=O)[C@@H](NC(=O)CNC(=O)[C@H](CCC(=O)O)NC(=O)[C@@H](NC(=O)[C@H](CCCNC(=N)N)NC(=O)[C@H](CCCNC(=N)N)NC(=O)[C@@H]1CCCN1C(=O)[C@H](CCC(=O)O)NC(=O)CNC(=O)CNC(=O)CNC(=O)CNC(=O)CNC(=O)[C@H](CCC(N)=O)NC(=O)[C@@H]1CCCN1C(=O)[C@@H]1CCCN1C(=O)[C@H](CCCNC(=N)N)NC(=O)[C@H](CCCNC(=N)N)NC(=O)[C@H](CCCNC(=N)N)NC(=O)[C@H](CCC(N)=O)NC(=O)[C@H](CCCNC(=N)N)NC(=O)[C@H](CCCNC(=N)N)NC(=O)[C@H](CCCCN)NC(=O)[C@H](CCCCN)NC(=O)[C@H](CCCNC(=N)N)NC(=O)CNC(C)=O)[C@@H](C)O)C(C)C)C(C)C)C(C)C)C(=O)N[C@H](C(=O)N[C@@H](CCCCN)C(=O)NCC(=O)N[C@@H](CCC(N)=O)C(=O)N1CCC[C@H]1C(=O)N[C@@H](Cc1ccccc1)C(=O)N[C@@H](CC(=O)O)C(=O)N[C@@H](C(=O)O)C(C)C)C(C)C [RB5]	significantly enhanced	significantly higher than the Scramble group	greatly above it	remained highly significant	still highly significant	dropped to basal levels indistinguishable from SCR group; also recorded: went down to basal levels indistinguishable from SCR group	No changes	significantly higher	equally increased
GRKKRRQRRRPPQGGGGGEPRRTEGVGPGVPGEVEMVKGQPFDV (listed as Homo sapiens) [CPP-RB5]	greater performances in remembering the object						no changes	selectively enhanced	equally increased

From US11471502B2, “Neuroprotective peptide” (UNIVERSITY COLLEGE CARDIFF C[…], priority 2017, dated 2022)
